The nature of this data set: Osmotic pressure of saturated solutions of osmotically effective compounds and mixtures (vapor pressure osmometer). Type of data set: physicochemical. To be noted: saturated solution in water at 37° C.; Model 302B Vapor Pressure Osmometer. An excerpt:
The term “osmagent”, as used herein, includes osmotically effective solutes, osmotically effective compounds, and osmotic agents. […] Osmotically effective compounds useful for the present purpose include magnesium sulfate, magnesium chloride, sodium chloride, lithium chloride, potassium sulfate, sodium carbonate, sodium sulfite, lithium sulfate, potassium chloride, calcium bicarbonate, sodium sulfate, calcium sulfate, potassium acid phosphate, calcium lactate, d-mannitol, urea, inositol, magnesium succinate, tartaric acid, carbohydrates such as raffinose, sucrose, glucose, maltodextrins, α-d-lactose monohydrate, and mixtures thereof. The osmotically effective compound in layer 18 can be in any physical form such as particle, crystal, pellet, tablet, strip, ground, pulverized, film, or granule. The osmotic pressure of saturated solutions of various osmotically effective compounds and for mixtures of osmotic compounds at 37° C. in water, is listed in Table 1. The osmotic pressure can be measured by a commercially available osmometer that measures the vapor pressure difference between pure water and the solution to be analyzed. According to standard thermodynamic principles, the vapor pressure difference is converted into osmotic pressure. In Table 1, osmotic pressures of from 20 atm to 500 atm are set forth. However, the invention includes the use of lower osmotic pressures, and higher osmotic pressures than from 20 atm to 500 atm. The osmometer used for the present measurements is Model 302B, Vapor Pressure Osmometer, manufactured by the Hewlett Packard Co., Avondale, Pa.

Turning to `O=C(CO)[C@@H](O)[C@H](O)[C@H](O)CO` [Fructose], the “OSMOTIC PRESSURE (atm)” value worked out at 355 atm.

On to `OC[C@@H](O)[C@@H](O)[C@H](O)[C@H](O)CO` [Mannitol], for which the “OSMOTIC PRESSURE (atm)” value came to 38 atm.

As for `[Cl-].[K+]` [Potassium Chloride], the “OSMOTIC PRESSURE (atm)” value is 245 atm.

Take `O=S(=O)([O-])[O-].[K+].[K+]` [Potassium Sulfate]: the “OSMOTIC PRESSURE (atm)” value amounted to 39 atm.

As for `[Cl-].[Na+]` [Sodium Chloride], the “OSMOTIC PRESSURE (atm)” value was 356 atm.

For the compound `O.O.O.O.O.O.O.O=P([O-])([O-])O.[Na+].[Na+]` [Sodium Phosphate Dibasic-7H20], the “OSMOTIC PRESSURE (atm)” value stood at 31 atm.

On to `O.O.O.O.O.O.O.O.O.O.O.O.O=P([O-])([O-])O.[Na+].[Na+]` [Sodium Phosphate Dibasic-12H20], for which the “OSMOTIC PRESSURE (atm)” value was 31 atm.

For `O=P([O-])([O-])O.[Na+].[Na+]` [Sodium Phosphate Dibasic-Anhydrous], the “OSMOTIC PRESSURE (atm)” value is 29 atm.

For the compound `O.O=P([O-])(O)O.[Na+]` [Sodium Phosphate Monobasic-H20], the “OSMOTIC PRESSURE (atm)” value amounted to 28 atm.

`O.O.O.O.O.O.O.O.O.O.O.O.O=P([O-])([O-])[O-].[Na+].[Na+].[Na+]` [Sodium Phosphate Tribasic-12H20]: the “OSMOTIC PRESSURE (atm)” value was determined as 36 atm.

Turning to `OC[C@H]1O[C@@](CO)(O[C@H]2O[C@H](CO)[C@@H](O)[C@H](O)[C@H]2O)[C@@H](O)[C@@H]1O` [Sucrose], the “OSMOTIC PRESSURE (atm)” value was determined as 150 atm.

The values are drawn from patent publication US20070207204A1, “Dosage Form for Time-Varying Patterns of Drug Delivery” (ALZA CORPORATION, priority 2001, published 2007).
